Assay results from patent US8895585B2, “Nicotinamide derivative or salt thereof” (FUJIFILM Corporation, priority 2010, dated 2014).

Assays:
THP-1 cells = assay: TNFα generation assay; assay type: cell-based, human; conditions: Homo sapiens, THP-1, THP-1 cells; Table 22; read-out: IC50 in TNFα generation assay
Method in brief: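 THP-1 cells differentiated to macrophage-like cells with 10 ng/ml IFN-γ for 2 days, preincubated with compound 30 min at room temperature, then cultured 7 h on plates coated with human IgG (10 μg/ml). Secreted TNFα measured by ELISA or AlphaLISA.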

[1] = molecular target: T1, glutathione S-transferase (GST)-fused full-length human Syk protein (Homo sapiens, UniProt P43405); assay: Syk enzyme assay; assay type: biochemical; conditions: Syk enzyme assay, Test Example 1; read-out: IC50 of Syk-inhibitory activity
T1 construct: (GST)-fused full-length human Syk protein; GST (glutathione S-transferase); purchased Carna Biosciences
Method in brief: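 GST-tagged full-length human Syk (baculovirus) preincubated with compound 15 min at room temperature (pH 7.0, 10 mM MgCl2), then reacted 40 min with 0.4 μM biotinylated peptide substrate and 27 μM ATP (final). Phosphorylation read by HTRF (615/665 nm) after EDTA stop; IC50 reported.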

Compound | IC50 (THP-1 cells) [nM] | IC50 [1] [nM]
COCCn1nc(C)c2ccc(Nc3nc(N[C@H](CC4CC4)[C@H](C)N)c(F)cc3C(N)=O)cc21 [Example 006-487, 6-(((2R,3S)-3-amino-1-cyclopropylbutan-2-yl)amino)-5-fluoro-2-((1-(2-methoxyethyl)-3-methyl-1H-indazol-6-yl)amino)nicotinamide] | 130 to 200 | < 10
Cc1nn(CCF)c2cc(Nc3nc(N[C@H](CC4CC4)[C@H](C)N)c(F)cc3C(N)=O)ccc12 [Example 006-488, 6-(((2R,3S)-3-amino-1-cyclopropylbutan-2-yl)amino)-5-fluoro-2-((1-(2-fluoroethyl)-3-methyl-1H-indazol-6-yl)amino)nicotinamide] | 65 to 130 | < 10
Cc1nn(CC(F)F)c2cc(Nc3nc(N[C@H](CC4CC4)[C@H](C)N)c(F)cc3C(N)=O)ccc12 [Example 006-489, 6-(((2R,3S)-3-amino-1-cyclopropylbutan-2-yl)amino)-2-((1-(2,2-difluoroethyl)-3-methyl-1H-indazol-6-yl)amino)-5-fluoronicotinamide] | 130 to 200 | < 10
CCc1nn(C)c2ccc(Nc3nc(N[C@H](CC4CC4)[C@H](C)N)c(F)cc3C(N)=O)cc12 [Example 006-505, 6-(((2R,3S)-3-amino-1-cyclopropylbutan-2-yl)amino)-2-((3-ethyl-1-methyl-1H-indazol-5-yl)amino)-5-fluoronicotinamide] | 130 to 200 | < 10
CCc1nn(CC)c2ccc(Nc3nc(N[C@H](CC4CC4)[C@H](C)N)c(F)cc3C(N)=O)cc12 [Example 006-506, 6-(((2R,3S)-3-amino-1-cyclopropylbutan-2-yl)amino)-2-((1,3-diethyl-1H-indazol-5-yl)amino)-5-fluoronicotinamide] | 130 to 200 | < 10
CC(C)c1nn(C)c2ccc(Nc3nc(N[C@H](CC4CC4)[C@H](C)N)c(F)cc3C(N)=O)cc12 [Example 006-507, 6-(((2R,3S)-3-amino-1-cyclopropylbutan-2-yl)amino)-5-fluoro-2-((3-isopropyl-1-methyl-1H-indazol-5-yl)amino)nicotinamide] | 130 to 200 | < 10
CCn1ncc2c(Nc3nc(N[C@H](CC4CC4)[C@H](C)N)c(F)cc3C(N)=O)cccc21 [Example 006-508, 6-(((2R,3S)-3-amino-1-cyclopropylbutan-2-yl)amino)-2-((1-ethyl-1H-indazol-4-yl)amino)-5-fluoronicotinamide] | 65 to 130 | < 10
CCn1nc(F)c2cc(Nc3nc(N[C@H](CC4CC4)[C@H](C)N)c(F)cc3C(N)=O)ccc21 [Example 006-509, 6-(((2R,3S)-3-amino-1-cyclopropylbutan-2-yl)amino)-2-((1-ethyl-3-fluoro-1H-indazol-5-yl)amino)-5-fluoronicotinamide] | 65 to 130 | < 10
C[C@H](N)[C@@H](CC1CC1)Nc1nc(Nc2ccc3c(c2)c(F)nn3CC(F)F)c(C(N)=O)cc1F [Example 006-510, 6-(((2R,3S)-3-amino-1-cyclopropylbutan-2-yl)amino)-2-((1-(2,2-difluoroethyl)-3-fluoro-1H-indazol-5-yl)amino)-5-fluoronicotinamide] | 65 to 130 | < 10
CC(C)C[C@@H](Nc1nc(Nc2ccc3c(c2)c(F)nn3C)c(C(N)=O)cc1F)[C@H](C)N [Example 006-511, 6-(((2S,3R)-2-amino-5-methylhexan-3-yl)amino)-5-fluoro-2-((3-fluoro-1-methyl-1H-indazol-5-yl)amino)nicotinamide] | < 65 | < 10
CCn1nc(F)c2cc(Nc3nc(N[C@H](CC(C)C)[C@H](C)N)c(F)cc3C(N)=O)ccc21 [Example 006-512, 6-(((2S,3R)-2-amino-5-methylhexan-3-yl)amino)-2-((1-ethyl-3-fluoro-1H-indazol-5-yl)amino)-5-fluoronicotinamide] | 65 to 130 | < 10
CC(C)C[C@@H](Nc1nc(Nc2ccc3c(c2)c(F)nn3CC(F)F)c(C(N)=O)cc1F)[C@H](C)N [Example 006-513, 6-(((2S,3R)-2-amino-5-methylhexan-3-yl)amino)-2-((1-(2,2-difluoroethyl)-3-fluoro-1H-indazol-5-yl)amino)-5-fluoronicotinamide] | 65 to 130 | < 10

Results, then the compound that gave them:

IC50 (THP-1 cells) [nM] | IC50 [1] [nM] | Compound
130 to 200 | < 10 | C[C@H](N)[C@@H](CC1CC1)Nc1nc(Nc2ccc3cnn(C4CC4)c3c2)c(C(N)=O)cc1F [Example 006-480, 6-(((2R,3S)-3-amino-1-cyclopropylbutan-2-yl)amino)-2-((1-cyclopropyl-1H-indazol-6-yl)amino)-5-fluoronicotinamide]
< 65 | < 10 | Cc1ncc(Nc2nc(N[C@H](C3CC3)[C@H](C)N)c(F)cc2C(N)=O)cc1-n1nccn1 [Example 006-483, 6-(((1R,2S)-2-amino-1-cyclopropylpropyl)amino)-5-fluoro-2-((6-methyl-5-(2H-1,2,3-triazol-2-yl)pyridin-3-yl)amino)nicotinamide]
65 to 130 | 10 to 50 | COc1ncc(Nc2nc(N[C@@H]3CCCC[C@@H]3N)c(F)cc2C(N)=O)cc1F [Example 006-484, 6-(((1R,2S)-2-aminocyclohexyl)amino)-5-fluoro-2-((5-fluoro-6-methoxypyridin-3-yl)amino)nicotinamide]
65 to 130 | < 10 | Cc1nn(C)c2cc(Nc3nc(N[C@H](CC4CC4)[C@H](C)N)c(F)cc3C(N)=O)ccc12 [Example 006-485, 6-(((2R,3S)-3-amino-1-cyclopropylbutan-2-yl)amino)-2-((1,3-dimethyl-1H-indazol-6-yl)amino)-5-fluoronicotinamide]
130 to 200 | < 10 | CCn1nc(C)c2ccc(Nc3nc(N[C@H](CC4CC4)[C@H](C)N)c(F)cc3C(N)=O)cc21 [Example 006-486, 6-(((2R,3S)-3-amino-1-cyclopropylbutan-2-yl)amino)-2-((1-ethyl-3-methyl-1H-indazol-6-yl)amino)-5-fluoronicotinamide]
130 to 200 | 10 to 50 | COc1ncc(Nc2nc(N[C@@H]3CCCC[C@@H]3N)c(F)cc2C(N)=O)cc1-n1ccnn1 [Example 006-493, 6-(((1R,2S)-2-aminocyclohexyl)amino)-5-fluoro-2-((6-methoxy-5-(1H-1,2,3-triazol-1-yl)pyridin-3-yl)amino)nicotinamide]
130 to 200 | 10 to 50 | CCOc1ncc(Nc2nc(N[C@@H]3CCCC[C@@H]3N)c(F)cc2C(N)=O)cc1-n1cccn1 [Example 006-494, 6-(((1R,2S)-2-aminocyclohexyl)amino)-2-((6-ethoxy-5-(1H-pyrazol-1-yl)pyridin-3-yl)amino)-5-fluoronicotinamide]
130 to 200 | < 10 | CCOc1ncc(Nc2nc(N[C@@H]3CCCC[C@@H]3N)c(F)cc2C(N)=O)cc1-n1nccn1 [Example 006-495, 6-(((1R,2S)-2-aminocyclohexyl)amino)-2-((6-ethoxy-5-(2H-1,2,3-triazol-2-yl)pyridin-3-yl)amino)-5-fluoronicotinamide]
65 to 130 | < 10 | CCOc1ncc(Nc2nc(N[C@@H]3CCCC[C@@H]3N)c(F)cc2C(N)=O)cc1-n1ccnn1 [Example 006-496, 6-(((1R,2S)-2-aminocyclohexyl)amino)-2-((6-ethoxy-5-(1H-1,2,3-triazol-1-yl)pyridin-3-yl)amino)-5-fluoronicotinamide]
65 to 130 | < 10 | CCOc1ncc(Nc2nc(N[C@@H]3CCCC[C@@H]3N)c(F)cc2C(N)=O)cc1C [Example 006-497, 6-(((1R,2S)-2-aminocyclohexyl)amino)-2-((6-ethoxy-5-methylpyridin-3-yl)amino)-5-fluoronicotinamide]
65 to 130 | < 10 | COCCOc1ncc(Nc2nc(N[C@@H]3CCCC[C@@H]3N)c(F)cc2C(N)=O)cc1C [Example 006-498, 6-(((1R,2S)-2-aminocyclohexyl)amino)-5-fluoro-2-((6-(2-methoxyethoxy)-5-methylpyridin-3-yl)amino)nicotinamide]
130 to 200 | 10 to 50 | Cc1cc(Nc2nc(N[C@@H]3CCCC[C@@H]3N)c(F)cc2C(N)=O)cnc1-n1cccn1 [Example 006-499, 6-(((1R,2S)-2-aminocyclohexyl)amino)-5-fluoro-2-((5-methyl-6-(1H-pyrazol-1-yl)pyridin-3-yl)amino)nicotinamide]
65 to 130 | 10 to 50 | Cc1cc(Nc2nc(N[C@@H]3CCCC[C@@H]3N)c(F)cc2C(N)=O)cnc1-n1nccn1 [Example 006-500, 6-(((1R,2S)-2-aminocyclohexyl)amino)-5-fluoro-2-((5-methyl-6-(2H-1,2,3-triazol-2-yl)pyridin-3-yl)amino)nicotinamide]
130 to 200 | 10 to 50 | Cc1cc(Nc2nc(N[C@@H]3CCCC[C@@H]3N)c(F)cc2C(N)=O)cnc1-n1ccnn1 [Example 006-501, 6-(((1R,2S)-2-aminocyclohexyl)amino)-5-fluoro-2-((5-methyl-6-(1H-1,2,3-triazol-1-yl)pyridin-3-yl)amino)nicotinamide]
65 to 130 | < 10 | CCc1ncc(Nc2nc(N[C@@H]3CCCC[C@@H]3N)c(F)cc2C(N)=O)cc1C [Example 006-502, 6-(((1R,2S)-2-aminocyclohexyl)amino)-2-((6-ethyl-5-methylpyridin-3-yl)amino)-5-fluoronicotinamide]
65 to 130 | < 10 | Cc1cc(Nc2nc(N[C@@H]3CCCC[C@@H]3N)c(F)cc2C(N)=O)cnc1C1CC1 [Example 006-503, 6-(((1R,2S)-2-aminocyclohexyl)amino)-2-((6-cyclopropyl-5-methylpyridin-3-yl)amino)-5-fluoronicotinamide]
